Reference: US12319752B2, “Heparin-binding cationic peptide self-assembling peptide amphiphiles useful against drug-resistant bacteria” (priority 2016, dated 2025)
Residues, ends and D or L forms follow the SMILES beside them. *: point of attachment. Palmitoyl = CCCCCCCCCCCCCCCC(=O)*

How the values were obtained:
S. aureus [1] = experiment: Bacterial growth inhibition (growth curves, OD562, 20 h); assay type: cell-based, Staphylococcus aureus (ATCC #25923)
Experimental: Gram-positive (S. aureus and MRSA) and Gram-negative (E. coli and MDR E. coli) bacteria were incubated with peptide concentrations ranging from 20 to 100 μM, and time-lapsed bacterial growth was monitored for 20 hours by determining the optical density at 562 nm (O.D. 562 nm). […] At the highest concentration tested (100 μM), the time to exponential growth phase of S. aurues was delayed by about 18 h (FIG. 5B), and was prolonged by almost 13 h for MRSA (FIG. 5A), while bacteria incubated without ACA-PA entered the exponential growth phase within 4 h. Gram-positive bacteria were also susceptible to the ACA-PA even below their CMC.
This assay was performed to investigate the inhibitory effects of each peptide against Gram-positive Staphylococcus aureus (S. aureus, ATCC #25923) and methicillin-resistant S. aureus (MRSA, ATCC #43300), as well as Gram-negative Escherichia coli (E. coli, ATCC #25922), and multidrug-resistant E. coli (MDR E. coli, ATCC #BAA-2471). In all experiments, solutions of each peptide at the concentrations from 20 μM to 100 μM in 3% Tryptic Soy Broth (TSB) media were freshly prepared. A single colony of bacteria was isolated from a stock agar plate and cultured overnight in 4 mL of 3% TSB on a shaking incubator set at 200 rpm and 37° C. The bacteria culture was adjusted to an optical density at 562 nm (OD562) to about 0.52 (10^9 cells/mL), and the resulting bacteria suspension was subsequently diluted to about 10^6 colony forming units (CFU) per mL in each sample. The control samples were bacteria incubated in TSB media without peptides. The bacteria were incubated inside a spectrophotometer (Spectra-Max Paradigm, Molecular Devices, Sunnyvale, CA) at 37° C. under static conditions for 20 h, and the bacterial growth curves were measured in terms of turbidity at OD562 every 2 minutes. The normalized OD562 values of samples were calculated by subtracting the […].

S. aureus [2] = experiment: Viable colony count assay (bactericidal effect, 4 h); assay type: cell-based, Staphylococcus aureus (ATCC #25923)
Experimental: (§1) The bactericidal effects of the peptides were examined using a viable colony count assay as well as the live/dead staining assay. For the viable colony count assay, bacteria were treated with peptides for 4 h and the resulting viable bacterial density of each sample was expressed by log10[CFU/mL]. For the Gram-positive bacteria tested, the decrease in bacterial density was dependent on the concentration of the ACA-PA (FIG. 8A). […] As for Gram-negative E. coli and MDR E. coli bacteria (FIG. 8B), the ACA nanorods, wherein the PA were added at a concentration above their CMC, had potent bactericidal effects. For example, the ACA nanorods at concentrations over 60 μM reduced the colony forming units of Gram-negative bacteria by about a five log unit reduction after 4 h compared with the untreated negative control sample.
(§2) The viable count assay was performed to quantify the bactericidal activity of each peptide. Stock solutions of peptides were diluted in 3% TSB media to concentrations ranging from 20 μM to 100 μM immediately before experiments. Heparin-ACA-PA were also prepared by mixing the ACA-PA stock solution with heparin (sodium salt from porcine intestinal mucosa, Sigma, St. Louis, MO) to 1:1, 1:2 and 1:3 weight ratios in water, and a final concentration of ACA-PA in the heparin-ACA-PA at each heparin weight ratio was adjusted to 80 μM for each experiment. The bacteria (10^6 CFU/mL) were incubated with peptides at 37° C. for 4 h. After incubation, serial dilutions of samples were plated on TSB agar and then incubated at 37° C. overnight. The colonies from each spot were manually counted, and the CFU number for each sample was determined. Experiments were conducted in triplicate and results were expressed as the log 10 values of the CFU number in each sample. Data were expressed by stand error of the mean (±S.E.M.) and N=3, *p<0.05 compared with control samples and #p<0.05 compared with bacteria treated with 40 μM of ACA-PA.

MRSA = experiment: as above; assay type: cell-based, methicillin-resistant S. aureus (MRSA, ATCC #43300)
Experimental: as §1
(§3) In addition, ACA-PA were mixed with heparin at various weight ratios (1:1, 1:2, and 1:3 ACA-PA to heparin ratios) to block the Cardin motif groups on the PA. The ACA-PA concentration used to treat bacteria (MRSA and MDR E. coli) was a constant 80 μM and only varied in the concentration of heparin.
as §2

MDR E. coli = experiment: as above; assay type: cell-based, multidrug-resistant E. coli (MDR E. coli, ATCC #BAA-2471)
Experimental: as §1, §3, §2

CCCCCCCCCCCCCCCC(=O)N[C@H](C(=O)N[C@H](C(=O)N[C@H](C(=O)N[C@H](C(=O)N[C@@H](CCCCN)C(=O)N[C@@H](CCCCN)C(=O)N[C@@H](CCCCN)C(=O)N[C@@H](CCCCN)C(=O)NCC(=O)N[C@@H](C)C(=O)N[C@@H](CCCCN)C(=O)N[C@@H](CCCCN)C(=O)N[C@@H](C)C(=O)N[C@@H](CCCNC(=N)N)C(=O)N[C@@H](C)C(=O)N[C@@H](C)C(=O)N[C@@H](CCCCN)C(=O)N[C@@H](CCCCN)C(=O)N[C@@H](C)C(=O)N[C@@H](CCCNC(=N)N)C(=O)N[C@@H](C)C(=O)O)C(C)C)C(C)C)C(C)C)C(C)C [ACA-PA, C16-V4K4G(AKKARA)2 (SEQ ID NO: 7)] (Palmitoyl-VVVVKKKKGAKKARAAKKARA-OH; N-terminus and C-terminus assumed)
delay of time to exponential growth phase (S. aureus [1]; 100 μM): about 18 h
bacterial growth inhibition (S. aureus [1]; 20 to 100 μM, 20 h): remarkably inhibited the proliferation
susceptibility of bacterial growth (S. aureus [1]; below the CMC): susceptible
decrease in bacteria density (S. aureus [2]; S. aureus (Gram-positive), 60 to 100 μM): ~100 fold
decline in bacteria density (S. aureus [2]; S. aureus, over 80 μM, 4 h): 100 fold
decrease of colony forming units (S. aureus [2]; S. aureus, over 80 μM, 4 h): two
decrease in bacteria density (MRSA; MRSA (Gram-positive), 60 to 100 μM): ~100 fold
number of viable bacteria colonies after mixing with heparin (MRSA; MRSA, 80 μM ACA-PA, 1:1, 1:2, 1:3 ACA-PA to heparin weight ratios): positively proportional to the amount of heparin added
toxicity towards bacteria after mixing with heparin (MRSA; MRSA, 80 μM ACA-PA, 1:3 ACA-PA to heparin weight ratio, 4 h): no toxicity towards bacteria
decline in bacteria density (MRSA; MRSA, over 80 μM, 4 h): 100 fold
decrease of colony forming units (MRSA; MRSA, over 80 μM, 4 h): two
decrease in bacteria density (MDR E. coli; MDR E. coli (Gram-negative), 60 to 100 μM): 10,000 fold
number of viable bacteria colonies after mixing with heparin (MDR E. coli; MDR E. coli, 80 μM ACA-PA, 1:1, 1:2, 1:3 ACA-PA to heparin weight ratios): positively proportional to the amount of heparin added
toxicity towards bacteria after mixing with heparin (MDR E. coli; MDR E. coli, 80 μM ACA-PA, 1:3 ACA-PA to heparin weight ratio, 4 h): no toxicity towards bacteria
reduction in bacteria density (MDR E. coli; MDR E. coli, concentrations lower than CMC, 4 h): no significant reduction in Gram-negative bacteria density
reduction of colony forming units (MDR E. coli; MDR E. coli, over 60 μM, 4 h, vs untreated control): five
